Reference: patent US20130064815A1, “INDUCING APOPTOSIS IN QUIESCENT CELLS” (THE TRUSTEES OF PRINCETON UNIVERSITY, priority 2011, published 2013)
Where a SMILES comes first, the peptide text is derived from it. The star is where a group is joined. Cbz = O=C(OCc1ccccc1)*

Assays:
[1] = test system: primary human fibroblasts; test: caspase 3/7 activity apoptosis assay (ApoTox-Glo) in proliferating and quiescent fibroblasts; format: cell-based; settings: MG132 0 to 10 μM; proliferating and serum-starved cells
Experimental: Referring to FIG. 2A, primary human fibroblasts were tested either in a proliferating state or after being induced into quiescence. Quiescence may be induced by either contact inhibition or serum starvation. Cells were treated with DHEA for four days, with bafilomycin added on the fourth day. Apoptosis was assessed based on the activity of caspase 3/7 for a fluorogenic substrate.
PPP inhibition and apoptosis analysis: Apoptosis was measured based on the levels of caspase 3/7 released into the media using the ApoTox-Glo Triplex Assay according to the manufacturer's instructions (Promega Corp., Madison, Wis.). Cells were plated in triplicate at 10,000 cells per well in white-walled, clear-bottom 96-well plates (Costar, Corning Life Sciences, Lowell, Mass.). For contact inhibition, cells were plated 7 days prior to the start of treatment, for serum starvation cells were plated 4 days prior to treatment and switched to 0.1% serum media for the remaining 3 days, while proliferating cells were plated the day prior to the start of treatment. […] Cells in serum starvation conditions were incubated in 0.1% serum during treatment as well. The apoptosis reagent was added at 100 μl per well and incubated for 1 h prior to reading. Luminescence was read from the top using a Synergy-2 plate reader (Biotek, Winooski, Vt.). Luminescence data were normalized to the vehicle only condition.
Apoptosis induction was assessed by monitoring caspase 3/7 activity using a luminescent caspase substrate. This assay is optimized for high-throughput screening in 96-well plates and allows multiple concentrations and combination of drugs to be tested in triplicate at different time points. […] Therefore, this assay was used to compare proliferating and serum-starved cells only.

superoxide = test: intracellular superoxide levels with dihydroethidium (DHE); format: cell-based, human; settings: proteasome inhibition
Description: (§1) Other researchers have reported that there is a correlation between proliferative status and sensitivity to oxidative stress in human fibroblasts (Naderi et al., 2003, “Oxidative stress-induced apoptosis in dividing fibroblasts involves activation of p38 MAP kinase and over-expression of Bax: resistance of quiescent cells to oxidative stress, Apoptosis 8, 91-100, which is incorporated herein by reference as if fully set forth). […] A Western blot analysis was used to monitor the levels of the ROS detoxifying enzymes MnSOD and catalase, an enzyme that converts hydrogen peroxide to water and oxygen. The protein concentrations of MnSOD and catalase were higher in quiescent fibroblasts than in proliferating cells (FIG. 26B), consistent with a previous report (Sarsour et al., 2008, “Manganese superoxide dismutase activity regulates transitions between quiescent and proliferative growth, Aging cell 7, 405-417, which is incorporated herein by reference as if fully set forth). […] It was hypothesized that the higher levels of ROS-detoxifying enzymes in quiescent fibroblasts contributes to the protection of quiescent fibroblasts from proteasome inhibition-induced apoptosis. Intracellular superoxide levels were monitored using dihydroethidium (DHE), an indicator of superoxide anions.

MnSOD = MnSOD expression after MG132 (microarray, Western blot); format: cell-based, human
Description: as §1

[2] = annexin V / PI flow cytometry after proteasome inhibition; format: cell-based, human; settings: human
Experimental: (§2) To elucidate the responses of proliferating and quiescent fibroblasts to proteasome inhibition, the effects of known proteasome inhibitors on proliferating and quiescent fibroblasts were examined.
(§3) At the highest dose (10 μM), approximately 50% of proliferating cells were apoptotic (FIG. 24A-lower right (Q4), upper right (Q2), and upper left (Q1) quadrants represent early apoptosis, late apoptosis, and very late apoptosis or necrosis, respectively). In comparison, quiescent fibroblasts were largely unaffected by MG132 treatment, showing far lower levels of apoptosis.

[3] = test system: proliferating and quiescent fibroblasts; test: as above; format: cell-based, human; settings: for cells with signs of apoptosis: highest dose (10 μM)
Experimental: as §2, §3

LC3-II = LC3-II immunoblot (autophagy / autophagic flux); format: cell-based, human; settings: MG132 treatment; proliferating, contact-inhibited and serum-starved states
Experimental: The levels of autophagy components—Atg5/Atg12, Atg7, Atg3, and LC3-I and LC3-II—were monitored in proliferating and contact-inhibited fibroblasts using immunoblotting (FIG. 21A). As a positive control for autophagy induction, samples of cells in each cell cycle state were also incubated in Kreb's Ringer Bicarbonate solution (KRB), a protocol that induces autophagy through amino acid starvation and elimination of other nutrients except glucose. Levels of Atg5/Atg12, Atg7, and LC3-II were elevated in all of the amino acid starvation and contact-inhibition states as compared to the proliferating state (FIG. 21A). Atg3 was induced in all quiescent states compared with proliferating states, including amino acid starvation. In order to differentiate whether the high levels of autophagy proteins resulted from a blockade of autophagy degradation or active flux through the pathway, we monitored the levels of LC3-II in proliferating and 7 dCI fibroblasts in the presence of bafilomycin A1 (Baf-A1). Baf-A1 is a vacuolar-type H^+-ATPase inhibitor that prevents autophagosome fusion with the lysosome due to an increase in lysosomal pH. […] This finding is consistent with active autophagic flux in quiescent fibroblasts
In addition to its role in providing amino acids and energy under starvation conditions, autophagy is involved in maintenance of cellular homeostasis and resistance to tumorigenesis through degradation of old or damaged proteins and entire organelles. It was hypothesized that autophagy in contact-inhibited cells could function to degrade old and/or damaged proteins that would otherwise accumulate in the cytoplasm due to lack of cell division as a mechanism for dilution of these proteins. Oxidation of proteins causes the formation of carbonyl groups on amino acids, and carbonylation can disrupt protein function. To monitor the extent of protein oxidation in proliferating and contact-inhibited fibroblasts, the protein carbonyl groups were derivatized using 2,4-dinitrophenylhydrazine (DNP), and monitored using immunoblotting with an antibody that recognizes the covalently added DNP. The levels of oxidized proteins in proliferating and 7 dCI fibroblasts were monitored in cells that were either competent to perform autophagy (control), or were stably expressing an shRNA against the essential autophagy components Atg5 (sh-Atg5) or Atg7 (sh-Atg7), which are known to represent autophagy-defective phenotypes in other model systems. […] In contact-inhibited fibroblasts, in contrast, the levels of oxidized proteins increased 1.5-fold±0.1 in 7 dCI sh-Atg5 fibroblasts as compared to vector control counterparts (p=0.009) (FIG. 22B). […]
To test this hypothesis, the levels of an autophagy-specific form of the LC3 protein, LC3 II, were monitored compared to a housekeeping protein (Klionsky et al., 2008, “Guidelines for the use and interpretation of assays for monitoring autophagy in higher eukaryotes,” Autophagy 4, 151-175, which is incorporated herein by reference as if fully set forth). […]
We observed an increase in the ratio of LC3 II to GAPDH in response to MG132 treatment for cells in proliferating, contact-inhibited and serum-starved states (FIG. 25B). To test whether the high levels of LC3 II in quiescent cells in response to MG132 treatment result from a blockade of autophagy degradation or from active flux through the pathway, LC3 II levels were monitored in proliferating and quiescent fibroblasts treated with MG132 in the presence or absence of bafilomycin A1 (Baf). […]

Compound: CC(C)C[C@@H](C=O)NC(=O)[C@H](CC(C)C)NC(=O)[C@H](CC(C)C)NC(=O)OCc1ccccc1 [MG132] (Cbz-Leu-Leu-Leu-aldehyde)
- caspase 3/7 activity [1]: dose-dependent increases
- superoxide levels (superoxide; proliferating cells): significant induction of superoxide levels
- superoxide levels (superoxide; quiescent cells): maintained basal superoxide levels
- MnSOD protein levels (MnSOD; Western blot, proliferating and quiescent fibroblasts): further elevated MnSOD levels
- MnSOD transcript expression (MnSOD; microarray, proliferating and quiescent cells): induced MnSOD expression
- cytotoxicity at 24 h, 10 μM [2]: ~50%
- viability, quiescent vs proliferating fibroblasts ([3]; 48 hours of treatment): significantly higher number of quiescent fibroblasts maintained viability
- cells with signs of apoptosis ([3]; contact-inhibited fibroblasts, 24 hours): approximately 14%
- apoptotic cells (annexin V and PI) ([3]; proliferating cells, 10 μM, 24 hours): approximately 50%
- proliferating cell viability (fraction PI negative) ([3]; proliferating cells, 24 hours): statistically significant, dose-dependent decrease
- quiescent cell viability ([3]; quiescent cells, 24 hours, up to 10 μM MG132, 1 μM epoxomicin): maintained high viability
- cells with signs of apoptosis ([3]; serum-starved fibroblasts, 24 hours): ~10%
- ratio of LC3 II to GAPDH (LC3-II): increase
